The results in this text go back to patent US20200289523A1, “FIXED DOSED PHARMACEUTICAL COMPOSITION COMPRISING AMIODIPINE, CANDESARTAN CILEXETIL AND HYDROCHLOROTHIAZIDE FOR THE TREATMENT OF HYPERTENSION” (MIDAS PHARMA GMBH, priority 2016, published 2020).

Series [1] can be described thus: Solubility in various standard dissolution media (FIG. 1). In kind it is physicochemical. The note with it: at low pH-values.
Series [2] in a line: In-vitro dissolution of tablets (Ph. Eur. 2.9.3/USP <711>). Type of series: physicochemical. The conditions noted are these: on changes of the composition of the formulation. On the procedure: The in-vitro dissolution of tablets was analyzed according to Ph.

For `CCOc1nc2cccc(C(=O)OC(C)OC(=O)OC3CCCCC3)c2n1Cc1ccc(-c2ccccc2-c2nnn[nH]2)cc1` (centres unmarked) [Candesartan cilexetil], the solubility result in series [1] is listed as “barely soluble”.
As to `NS(=O)(=O)c1cc2c(cc1Cl)NCNS2(=O)=O` [Hydrochlorothiazide, 6-chloro-1,1-dioxo-3,4-dihydro-2H-1,2,4-benzothiadiazine-7-sulfonamide], the “dissolution profile of Hydrochlorothiazide” value in series [2] was “not influenced by changes of the composition”.
